We go through one molecule from paper PMC2233835 (The Journal of General Physiology, 2001).

The target of one experiment is T1, X-α homomeric channels (Bos taurus, UniProt Q00194, A200G/A344S/A378F/A555M/A614G/C169F/D157S/D193E/D538A/D604Q/DEL101-144/DEL91-95/E147F/E148K/E189Q/E196F/E230D/E231L/F201L/F214C/F374V/G160D/G591K/I156V/I181L/I182V/I235R/I530V/I609E/I611V/INS98[…]/K146T/K150R/K151W/K237N/K239I/K346C/K506R/K521Q/K551Q/K564R/K590Q/K596R/K598R/L195F/L199V/L210I/L351F/L583V/M175L/M213T/M592V/M602R/N161D/N165Y/N610S/N613A/P158Q/P173A/Q494R/Q599E/Q97T/R232A/R345F/R369K/R512K/S192D/S205C/S240R/S350C/S371E/S537T/S540G/T162I/T171A/T179I/T217L/T364M/T584A/V153G/V154F/V174S/V208I/V215I/V534A/V535L/Y194N/Y197L/Y541C).
T1 sequence (Q00194 with tags, fused parts or gaps DEL91-95/Q97T/INS98[…]/DEL101-144/K146T/E147F/E148K/K150R/K151W/V153G/V154F/I156V/D157S/P158Q/G160D/N161D/T162I/N165Y/C169F/T171A/P173A/V174S/M175L/T179I/I181L/I182V/E189Q/S192D/D193E/Y194N/L195F/E196F/Y197L/L199V/A200G/F201L/S205C/V208I/L210I/M213T/F214C/V215I/T217L/E230D/E231L/R232A/I235R/K237N/K239I/S240R/A344S/R345F/K346C/S350C/L351F/T364M/R369K/S371E/F374V/A378F/Q494R/K506R/R512K/K521Q/I530V/V534A/V535L/S537T/D538A/S540G/Y541C/K551Q/A555M/K564R/L583V/T584A/K590Q/G591K/M592V/K596R/K598R/Q599E/M602R/D604Q/I609E/N610S/I611V/N613A/A614G): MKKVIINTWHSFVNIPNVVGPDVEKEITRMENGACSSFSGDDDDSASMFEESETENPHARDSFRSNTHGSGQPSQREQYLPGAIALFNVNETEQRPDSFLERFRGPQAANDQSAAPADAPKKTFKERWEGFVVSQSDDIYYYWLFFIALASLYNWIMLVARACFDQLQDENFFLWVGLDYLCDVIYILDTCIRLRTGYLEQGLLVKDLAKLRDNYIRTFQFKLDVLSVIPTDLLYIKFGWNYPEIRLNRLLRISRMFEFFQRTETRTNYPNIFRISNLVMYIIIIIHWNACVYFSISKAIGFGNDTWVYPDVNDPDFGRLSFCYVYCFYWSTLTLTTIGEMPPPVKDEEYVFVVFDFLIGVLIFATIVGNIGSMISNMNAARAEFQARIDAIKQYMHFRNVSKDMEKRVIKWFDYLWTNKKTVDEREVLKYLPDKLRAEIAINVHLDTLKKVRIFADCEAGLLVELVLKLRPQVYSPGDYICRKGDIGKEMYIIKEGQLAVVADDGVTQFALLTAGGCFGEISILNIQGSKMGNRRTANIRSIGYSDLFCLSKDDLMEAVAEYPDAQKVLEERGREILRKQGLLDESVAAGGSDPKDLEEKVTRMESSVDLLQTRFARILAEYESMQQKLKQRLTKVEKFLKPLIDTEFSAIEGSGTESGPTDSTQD
Description: Macroscopic current dose–response in inside-out patches from Xenopus oocytes. It is filed as cell-based, chimera of bovine CNG1 and catfish CNG2.

The next experiment deals with T2, X-β homomeric channels (Bos taurus, UniProt Q00194, A200G/A344S/A378F/A555S/A582V/A612E/C169F/D157S/D193E/D502E/D538A/D577E/D588Q/D604M/DEL101-144/DEL91-95/E147F/E148K/E189Q/E196F/E230D/E231L/F201L/F214C/F374V/F533Y/G160D/G591A/G605N/I156V/I181L/I182V/I235R/I504V/I530V/I566L/I609V/I611A/INS98[…]/K146T/K150R/K151W/K237N/K239I/K346C/K506R/K518R/K521Q/K554M/K590Q/K598R/L195F/L199V/L210I/L351F/L548I/L593M/L606K/M175L/M213T/M580R/M592V/M602L/N161D/N165Y/N613A/P158Q/P173A/Q599E/Q97T/R232A/R345F/R369K/S192D/S205C/S240R/S350C/S371E/S537G/S540L/S553N/T162I/T171A/T179I/T217L/T364M/T584S/V153G/V154F/V174S/V208I/V215I/V487E/V497T/V534A/Y194N/Y197L).
T2 sequence (Q00194 with tags, fused parts or gaps DEL91-95/Q97T/INS98[…]/DEL101-144/K146T/E147F/E148K/K150R/K151W/V153G/V154F/I156V/D157S/P158Q/G160D/N161D/T162I/N165Y/C169F/T171A/P173A/V174S/M175L/T179I/I181L/I182V/E189Q/S192D/D193E/Y194N/L195F/E196F/Y197L/L199V/A200G/F201L/S205C/V208I/L210I/M213T/F214C/V215I/T217L/E230D/E231L/R232A/I235R/K237N/K239I/S240R/A344S/R345F/K346C/S350C/L351F/T364M/R369K/S371E/F374V/A378F/V487E/V497T/D502E/I504V/K506R/K518R/K521Q/I530V/F533Y/V534A/S537G/D538A/S540L/L548I/S553N/K554M/A555S/I566L/D577E/M580R/A582V/T584S/D588Q/K590Q/G591A/M592V/L593M/K598R/Q599E/M602L/D604M/G605N/L606K/I609V/I611A/A612E/N613A): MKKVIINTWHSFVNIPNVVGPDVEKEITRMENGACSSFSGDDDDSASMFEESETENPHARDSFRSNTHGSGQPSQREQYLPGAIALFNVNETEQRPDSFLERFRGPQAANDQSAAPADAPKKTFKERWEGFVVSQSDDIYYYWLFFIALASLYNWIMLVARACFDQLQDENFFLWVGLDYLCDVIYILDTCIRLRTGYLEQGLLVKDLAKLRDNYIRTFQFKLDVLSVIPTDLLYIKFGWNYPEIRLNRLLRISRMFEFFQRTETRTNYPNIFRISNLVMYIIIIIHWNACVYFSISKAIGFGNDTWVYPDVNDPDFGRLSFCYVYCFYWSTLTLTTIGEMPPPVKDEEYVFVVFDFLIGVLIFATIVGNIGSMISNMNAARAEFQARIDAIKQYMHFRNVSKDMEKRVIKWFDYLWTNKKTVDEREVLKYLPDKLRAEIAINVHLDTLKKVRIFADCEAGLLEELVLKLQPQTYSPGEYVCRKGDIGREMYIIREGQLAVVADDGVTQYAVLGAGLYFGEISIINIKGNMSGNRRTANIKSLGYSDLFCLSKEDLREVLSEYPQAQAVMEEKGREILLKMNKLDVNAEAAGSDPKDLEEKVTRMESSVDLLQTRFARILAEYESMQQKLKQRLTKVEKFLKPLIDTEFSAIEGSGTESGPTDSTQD
The description is as above. The experiment is classed as cell-based, chimera of bovine CNG1, catfish CNG2 and rat CNG5. As to conditions: for Hill coefficient h: −100 mV.

For `Nc1nc2c(ncn2[C@@H]2O[C@@H]3COP(=O)([O-])O[C@H]3[C@H]2O)c(=O)[nH]1.[Na+]` [cGMP], the Desensitization entry on X-α homomeric channels (agonist up to 30 mM) was “Yes”; at X-β homomeric channels (agonist up to 30 mM), “no evidence for this desensitization and No”. Further, the “agonist concentration at which macroscopic current decays (desensitization)” value at X-α homomeric channels (steady-state level lower than in 3 mM cGMP) was at least 10 mM. The Hill coefficient h on X-α homomeric channels (−100 mV, Hill fit of composite dataset, cGMP: only data ≤3 mM) is recorded as 1.210 ± 0.046; at X-β homomeric channels (one patch (Fig. 1C), Hill fit ± SE) it was 1.94 ± 0.13; at X-β homomeric channels (mean ± SD of individual patches) it was 2.07 ± 0.27 (9). In addition, the agonist character entry at X-β homomeric channels (macroscopic currents) was “full agonists”.
